Experimental findings from ChEMBL document CHEMBL2176973, “Synthesis and SAR Studies of Fused Oxadiazines as γ-Secretase Modulators for Treatment of Alzheimer's Disease” (ACS Med Chem Lett, 2012) are described below.

Structures are written as SMILES.

Data set [1] in a line: Inhibition of CYP450. The format is ADME.
The nature of data set [2]: AUC (0 to 6 hrs) in rat plasma at 10 mg/kg, po. The data set is classed as ADME, organism-based. Further details: time < 6 hr, dose 10 mg/kg, route oral; call rule not given here.
Data set [3] in a line: Ratio of drug level in brain to plasma rat at 10 mg/kg, po after 6 hrs. The data set is classed as ADME, organism-based. Further details: dose 10 mg/kg, route oral. As to conditions: read-out: BPR.
The target in a further data set is Gamma-secretase. In words: Modulation of gamma-secretase expressed in HEK293 cells co-expressing APPsw-lon assessed as reduction of amyloid-beta-42 level by sandwich immunoassay. The data set is classed as cell-based, Homo sapiens.
A further data set deals with Rattus norvegicus. In words: Antialzheimer's activity in rat assessed as reduction of amyloid-beta-42 level in CSF at 10 mg/kg, po after 3 hrs by AlphaLISA amyloid assay. The data set is classed as functional. Background: In Alpha technology, singlet oxygen from a donor bead excites a nearby acceptor bead.
The nature of data set [4]: Drug level in rat brain at 10 mg/kg, po after 6 hrs. The format is ADME, organism-based. Further details: dose 10 mg/kg, route oral. The following applies: read-out: Drug uptake.
The next data set deals with hERG (KCNH2) (Homo sapiens, UniProt Q12809). In words: Inhibition of human ERG at 10 uM.
Sequence of hERG (KCNH2) (Q12809 whole entry): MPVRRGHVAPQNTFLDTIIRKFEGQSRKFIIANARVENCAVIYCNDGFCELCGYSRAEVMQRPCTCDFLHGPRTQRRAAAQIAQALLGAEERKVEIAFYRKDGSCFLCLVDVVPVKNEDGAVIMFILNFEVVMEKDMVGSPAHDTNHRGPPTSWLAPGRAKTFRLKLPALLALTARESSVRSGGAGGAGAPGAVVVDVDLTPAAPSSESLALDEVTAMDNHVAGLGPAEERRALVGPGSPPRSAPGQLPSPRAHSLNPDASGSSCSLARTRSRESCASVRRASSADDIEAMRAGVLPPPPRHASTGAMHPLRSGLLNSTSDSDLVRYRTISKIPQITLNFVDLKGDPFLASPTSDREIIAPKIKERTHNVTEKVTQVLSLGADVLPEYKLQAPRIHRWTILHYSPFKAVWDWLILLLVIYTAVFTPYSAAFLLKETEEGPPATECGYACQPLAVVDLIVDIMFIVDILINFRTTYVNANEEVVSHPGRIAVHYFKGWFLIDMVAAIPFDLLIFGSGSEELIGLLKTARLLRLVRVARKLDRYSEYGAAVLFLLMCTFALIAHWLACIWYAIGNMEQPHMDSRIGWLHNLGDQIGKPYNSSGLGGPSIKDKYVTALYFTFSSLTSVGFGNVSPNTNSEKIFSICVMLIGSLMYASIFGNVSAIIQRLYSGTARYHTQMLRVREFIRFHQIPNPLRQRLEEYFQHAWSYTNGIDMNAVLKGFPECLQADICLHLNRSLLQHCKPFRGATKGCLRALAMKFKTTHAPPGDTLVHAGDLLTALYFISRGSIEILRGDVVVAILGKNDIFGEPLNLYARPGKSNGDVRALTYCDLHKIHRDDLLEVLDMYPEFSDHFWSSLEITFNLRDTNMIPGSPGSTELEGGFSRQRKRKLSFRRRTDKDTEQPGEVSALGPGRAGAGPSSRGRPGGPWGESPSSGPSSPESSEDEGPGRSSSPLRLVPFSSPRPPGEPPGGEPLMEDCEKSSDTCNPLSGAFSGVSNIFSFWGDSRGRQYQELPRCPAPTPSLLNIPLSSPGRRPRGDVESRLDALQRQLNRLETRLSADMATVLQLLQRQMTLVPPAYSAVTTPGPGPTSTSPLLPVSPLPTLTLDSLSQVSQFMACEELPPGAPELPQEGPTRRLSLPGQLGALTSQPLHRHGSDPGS
The target of data set [5] is T1, Nuclear receptor subfamily 1 group I member 2 (Homo sapiens, UniProt O75469).
T1 sequence (O75469 whole entry): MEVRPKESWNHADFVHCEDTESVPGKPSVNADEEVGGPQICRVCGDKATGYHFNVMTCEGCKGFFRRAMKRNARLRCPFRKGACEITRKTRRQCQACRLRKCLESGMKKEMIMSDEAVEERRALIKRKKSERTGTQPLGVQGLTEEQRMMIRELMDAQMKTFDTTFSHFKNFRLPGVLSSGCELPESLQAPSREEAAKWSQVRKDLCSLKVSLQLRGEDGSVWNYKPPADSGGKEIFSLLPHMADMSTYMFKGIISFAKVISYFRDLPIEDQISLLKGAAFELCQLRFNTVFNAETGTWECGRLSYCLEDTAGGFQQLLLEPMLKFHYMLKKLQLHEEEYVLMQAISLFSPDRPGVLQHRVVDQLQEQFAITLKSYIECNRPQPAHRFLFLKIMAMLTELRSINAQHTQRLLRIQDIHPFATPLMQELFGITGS
In words: Induction of PXR.

In data set [6] the target is Gamma-secretase (Homo sapiens) (UniProt Q96BI3+Q9NZ42+Q8WW43+P49768+Q92542+P49810). In words: Modulation of gamma-secretase expressed in HEK293 cells co-expressing APPsw-lon assessed as reduction of total amyloid beta/amyloid-beta-42 ratio by sandwich immunoassay. The data set is classed as cell-based.

Consider `COc1cc(/C=C2\CCCN3C[C@H](c4cc(F)c(F)c(F)c4)ON=C23)ccc1-n1cnc(C)c1`, for which the “inhibition (INH)” value in data set [1] is “Not Active”. Besides, the exposure AUC(0-t) (usually exposure summed from dosing to a finite time, without extrapolation to infinity) at 6 h in data set [2] amounted to 24.3 µM·h. In data set [3], the Kp at 6 h is 1. Moreover, at Gamma-secretase, the IC50 (in general, the concentration needed to halve the response being measured) is 48 nM. In addition, the inhibition in vivo (commonly the change of the read-out against control, counted positive when it falls) at 10 mg/kg in the data set with Rattus norvegicus was 45%. Moreover, the concentration at 6 h in data set [4] was 1880 ng/g. Besides, on hERG (KCNH2), testing at 10 µM gave an inhibition of 83%. Besides, the Activity entry in [5] is “Not Active”. In addition, the Ratio in [6] is 328.
